Laboratory results reported in US20170342025A1, “ANTIMICROBIAL COMPOUNDS, COMPOSITIONS AND METHODS” (Swansea University, priority 2014, published 2017).
Like-named read-outs stand apart in the source and are kept apart here.

Assays:
[1] = test system: Escherichia coli (strain JM109); assay: MIC determination against Escherichia coli (Andrews protocol); assay type: cell-based; conditions: for MIC: Escherichia coli, read-out: MIC E. coli
Experimental: (§1) Minimum Inhibitory Concentrations (MICs) for the compounds prepared were determined against Escherichia coli (strain JM109) and Staphylococcus aureus (strain 9518) using the protocols described by Andrews (J. Antimicrob. Chemother., 2001, 48, Suppl. S1, 5-16).

[2] = test system: Staphylococcus aureus (strain 9518); assay: MIC determination against Staphylococcus aureus (Andrews protocol); assay type: cell-based; conditions: for MIC: Staphylococcus aureus, read-out: MIC S. aureus
Experimental: as §1

[3] = Staphylococcus aureus strain 9518

MIC ([1]; Escherichia coli strain JM109) | melting point | MIC [2, 3] | Structure (SMILES) | other results
10 to 32 mg/L | 245 to 247 °C | 10 to 32 mg/L | Cl.N=C(N)N/N=C/c1cccc(OCc2ccc(C(F)(F)F)cc2)c1Cl [Compound 51k, (E)-Amino(2-(2-chloro-3-((4-(trifluoromethyl)benzyl)oxy)benzylidene)hydrazinyl) methaniminium chloride] | –
1 to 10 mg/L | 268 to 270 °C | 32 to 100 mg/L | Cl.N=C(N)N/N=C/c1cccc(OCc2ccc(Cl)cc2Cl)c1Cl [Compound 51f, (E)-Amino(2-(2-chloro-3-((2,4-dichlorobenzyl)oxy)benzylidene)hydrazinyl) methaniminium chloride] | –
– | 198 to 201 °C | – | Cl.N=C(N)N/N=C/c1cccc(OCc2cccc(C(F)(F)F)c2)c1Cl | –
1 to 10 mg/L | 183 to 187 °C | 1 to 10 mg/L | CC(=O)O.N=C(N)N/N=C/c1cccc(OCc2cccc(C(F)(F)F)c2)c1Cl [Compound 51j, (E)-Amino(2-(2-chloro-3-((3-(trifluoromethyl)benzyl)oxy)benzylidene)hydrazinyl) methaniminium acetate] | –
32 to 100 mg/L | 258 to 260 °C | 32 to 100 mg/L | COc1cccc(COc2cccc(/C=N/NC(=N)N)c2Cl)c1Cl.Cl [Compound 51a, (E)-Amino(2-(2-chloro-3-((2-chloro-3-methoxybenzyl)oxy)benzylidene) hydrazinyl)methaniminium chloride] | –
1 to 10 mg/L | 190 to 192 °C | 1 to 10 mg/L | CC(=O)O.N=C(N)NN=Cc1cccc(OCc2cccc(C(F)(F)F)c2Cl)c1 [Compound 49b, 1-{[(3-{[2-chloro-3-(trifluoromethyl)phenyl]methoxy}phenyl)methylidene]amino} guanidine acetate] | –
1 to 10 mg/L | 230 to 233 °C | 1 to 10 mg/L | Cl.N=C(N)N/N=C/c1cccc(OCc2ccc(Cl)c(Cl)c2)c1Cl [Compound 51h, (E)-Amino(2-(2-chloro-3-((3,4-dichlorobenzyl)oxy)benzylidene)hydrazinyl) methaniminium chloride] | –
1 to 10 mg/L | 203 to 205 °C | 1 to 10 mg/L | Cl.N=C(N)N/N=C/c1cccc(OCc2ccccc2)c1Cl [Compound 51b, (E)-Amino(2-(3-(benzyloxy)-2-chlorobenzylidene)hydrazinyl)methaniminium chloride] | –
– | 191 to 193 °C | – | Cl.N=C(N)N/N=C/c1cccc(OCc2ccc(Cl)cc2)c1 | –
32 to 100 mg/L | 273 to 276 °C | 32 to 100 mg/L | Cl.N=C(N)N/N=C/c1cccc(OCc2cc(Cl)cc(Cl)c2Cl)c1Cl [Compound 51i, (E)-Amino(2-(2-chloro-3-((2,3,5-trichlorobenzyl)oxy)benzylidene)hydrazinyl) methaniminium chloride] | –
1 to 10 mg/L | 250 to 253 °C | 32 to 100 mg/L | Cl.N=C(N)N/N=C/c1cccc(OCc2cccc(Cl)c2Cl)c1Cl [Compound 51d, (E)-Amino(2-(2-chloro-3-((2,3-dichlorobenzyl)oxy)benzylidene)hydrazinyl) methaniminium chloride] | –
– | 176 to 179 °C | – | Cl.N=C(N)N/N=C/c1cccc(OCc2ccc(C(F)(F)F)cc2)c1 [Compound 49d, (E)-Amino(2-(3-((4-(trifluoromethyl)benzyl)oxy)benzylidene) hydrazinyl) methaniminium chloride] | MIC E. coli ([1]; Escherichia coli strain JM109): +++ (MIC 1-10 μg/mL); MIC S. aureus [2, 3]: ++ (MIC 10-32 μg/mL)
– | – | – | N=C(N)Nc1ccc(CNS(=O)(=O)c2ccccc2)cc1.O=C(O)C(F)(F)F [Compound 59b, Amino((4-(phenylsulfonamidomethyl)phenyl)amino)methaniminium 2,2,2-trifluoroacetate] | MIC [1]: 32 to 100 mg/L; MIC [2]: 32 to 100 mg/L
32 to 100 mg/L | – | 10 to 32 mg/L | Cl.N=C(N)N/N=C/c1cccn1Cc1ccc(Cl)cc1 [Compound 61f, (E)-Amino(2-((1-(4-chlorobenzyl)-1H-pyrrol-2-yl)methylene)hydrazinyl) methaniminium chloride] | –
– | – | – | N=C(N)NCc1cccc(OCc2ccccc2)c1.O=C(O)C(F)(F)F [Compound 4a, 1-{[3-(benzyloxy)phenyl]methyl}guanidine 2,2,2-trifluoroacetate] | MIC [1]: > 100 mg/L; MIC [2]: 1 to 10 mg/L
10 to 32 mg/L | – | 10 to 32 mg/L | Cl.N=C(N)N/N=C/c1cccn1Cc1ccc(C(F)(F)F)cc1 [Compound 61h, (E)-Amino(2-((1-(4-(trifluoromethyl)benzyl)-1H-pyrrol-2-yl)methylene) hydrazinyl)methaniminium chloride] | –
– | – | – | N=C(N)NCc1cccc(OCc2cc(Cl)ccc2Cl)c1.O=C(O)C(F)(F)F [Compound 4f, 1-({3-[(2,5-dichlorophenyl)methoxy]phenyl}methyl)guanidine 2,2,2-trifluoroacetate] | MIC [1]: 10 to 32 mg/L; MIC [2]: 1 to 10 mg/L
1 to 10 mg/L | – | 10 to 32 mg/L | Cl.N=C(N)N/N=C/c1nccn1Cc1ccc(C(F)(F)F)cc1 [Compound 61d, (E)-Amino(2-((1-(4-(trifluoromethyl)benzyl)-1H-imidazol-2-yl)methylene) hydrazinyl)methaniminium chloride] | –
– | – | – | N=C(N)NCc1cccc(OCc2ccc(Cl)cc2Cl)c1.O=C(O)C(F)(F)F [Compound 4d, 1-({3-[(2,4-dichlorophenyl)methoxy]phenyl}methyl)guanidine 2,2,2-trifluoroacetate] | MIC [1]: 1 to 10 mg/L; MIC [2]: > 100 mg/L
1 to 10 mg/L | – | 10 to 32 mg/L | Cl.N=C(N)N/N=C/c1cccc(OCc2cccc(Cl)c2)c1Cl [Compound 51m, (E)-Amino(2-(2-chloro-3-((3-chlorobenzyl)oxy)benzylidene)hydrazinyl) methaniminium chloride] | –
1 to 10 mg/L | – | 10 to 32 mg/L | CC(=O)O.[H]/N=C(\N)NN=Cc1ccc(OC)c(OCc2ccc(Cl)c(Cl)c2)c1 [Compound 49g, (E)-2-(3-((3,4-dichlorobenzyl)oxy)-4-methoxybenzylidene)hydrazine-1-carboximidamide acetate] | –
– | – | – | COc1ccc(CNC(=N)N)cc1OCc1cccc(Cl)c1.O=C(O)C(F)(F)F [Compound 4m, 1-({3-[(3-chlorophenyl)methoxy]-4-methoxyphenyl}methyl)guanidine 2,2,2-trifluoroacetate] | MIC [1]: > 100 mg/L; MIC [2]: > 100 mg/L
– | – | – | N=C(N)NCc1ccc(NC(=O)c2ccccc2)cc1.O=C(O)C(F)(F)F [Compound 57b, Amino((4-benzamidobenzyl)amino)methaniminium 2,2,2-trifluoroacetate] | MIC [1]: 32 to 100 mg/L; MIC [2]: 32 to 100 mg/L
– | – | – | N=C(N)NCc1cccc(OCc2cccc(Cl)c2Cl)c1.O=C(O)C(F)(F)F [Compound 4g, 1-({3-[(2,3-dichlorophenyl)methoxy]phenyl}methyl)guanidine 2,2,2-trifluoroacetate] | MIC [1]: 10 to 32 mg/L; MIC [2]: 10 to 32 mg/L
32 to 100 mg/L | – | 32 to 100 mg/L | Cl.N=C(N)N/N=C/c1nccn1Cc1cccc(Cl)c1 [Compound 61a, (E)-amino(2-((1-(3-chlorobenzyl)-1H-imidazol-2-yl)methylene)hydrazinyl) methaniminium chloride] | –

Structure (SMILES) | MIC ([1]; Escherichia coli strain JM109) | melting point | MIC [2, 3] | other results
N=C(N)NOCc1cccc(Oc2ccccc2)c1.O=C(O)C(F)(F)F [Compound 41b, 1-[(3-phenoxyphenyl)methoxy]guanidine 2,2,2-trifluoroacetate] | > 100 mg/L | – | > 100 mg/L | –
N=C(N)Nc1ccc(OCc2ccccc2)cc1.O=C(O)C(F)(F)F [Compound 23a, 1-[4-(benzyloxy)phenyl]guanidine 2,2,2-trifluoroacetate] | > 100 mg/L | – | 1 to 10 mg/L | –
N=C(N)NCc1ccc(OCc2ccccc2)cc1.O=C(O)C(F)(F)F [Compound 19a, 1-(4-(benzyloxy)benzyl)guanidine 2,2,2-trifluoroacetate] | > 100 mg/L | – | 10 to 32 mg/L | –
N=C(N)N1CCc2ccc(Br)cc2C1.O=C(O)C(F)(F)F [Compound 26, 7-bromo-1,2,3,4-tetrahydroisoquinoline-2-carboximidamid 2,2,2-trifluoroacetate] | > 100 mg/L | – | > 100 mg/L | –
N=C(N)NCc1cccc(NS(=O)(=O)c2cccc(Cl)c2Cl)c1.O=C(O)C(F)(F)F [Compound 55g, Amino((3-((2,3-dichlorophenyl)sulfonamido)benzyl)amino)methaniminium 2,2,2-trifluoroacetate] | 32 to 100 mg/L | – | 32 to 100 mg/L | –
CNC(=N)NCc1cccc(OCc2cccc(Cl)c2Cl)c1.O=C(O)C(F)(F)F [Compound 15, 3-({3-[(2,3-dichlorophenyl)methoxy]phenyl}methyl)-1-methylguanidine 2,2,2-trifluoroacetate] | 10 to 32 mg/L | – | 10 to 32 mg/L | –
N=C(N)Nc1ccc(OCc2ccc(Cl)cc2)cc1.O=C(O)C(F)(F)F [Compound 23b, 1-{4-[(4-chlorophenyl)methoxy]phenyl}guanidine 2,2,2-trifluoroacetate] | > 100 mg/L | – | > 100 mg/L | –
N=C(N)N1CCc2ccc(OCc3cccc(Cl)c3Cl)cc2C1.O=C(O)C(F)(F)F [Compound 33, 7-[(2,3-dichlorophenyl)methoxy]-1,2,3,4-tetrahydroisoquinoline-2-carboximidamide 2,2,2-trifluoroacetate] | 1 to 10 mg/L | – | 1 to 10 mg/L | –
N=C(N)NCc1ccc(OCc2ccc(Cl)c(Cl)c2)cc1.O=C(O)C(F)(F)F [Compound 19d, 1-(4-((3,4-dichlorobenzyl)oxy)benzyl)guanidine 2,2,2-trifluoroacetate] | 10 to 32 mg/L | – | 1 to 10 mg/L | –
N=C(N)NOCc1cccc(-c2ccccc2)c1.O=C(O)C(F)(F)F [Compound 41a, 1-[(3-phenylphenyl)methoxy]guanidine 2,2,2-trifluoroacetate] | > 100 mg/L | – | > 100 mg/L | –
N=C(N)NCc1ccc(NS(=O)(=O)c2cccc(Cl)c2)cc1.O=C(O)C(F)(F)F [Compound 55a, Amino((4-((3-chlorophenyl)sulfonamido)benzyl)amino)methaniminium 2,2,2-trifluoroacetate] | 32 to 100 mg/L | – | 32 to 100 mg/L | –
